Experimental findings from patent US12415815B2, “Pyrido[2,3-e]oxazine derivatives as agricultural chemicals” (GLOBACHEM NV, priority 2020, dated 2025) are described below.

In brackets after ≈: the same amount, converted by molar mass. A value given as a limit tells only on which side of the number the result lay.

Assay type in all cases: cell-based
For experiment [1], the system named is Zymoseptoria tritici. The experiment is described as follows: Fungicidal activity screen in amended agar, 96 well plates, Zymoseptoria tritici. To be noted: 1% potato dextrose agar, 10,000 spores/mL, 20, 2, 0.2 and 0.02 ppm, room temperature (18° C.), assessed after 7 days; for EC50: Zymoseptoria tritici, 168 h, read-out: Zymoseptoria (fungal growth vs DMSO controls, EC50 ranking). The method, then: (§1) Compounds were screened in 96 well plates with 10 compounds per plate. Each compound was screened using agar amended to 20, 2, 0.2 and 0.02 ppm of the test material. Proline at 50 and 10 ppm and 0.2% DMSO were used respectively as positive and negative controls. Each test concentration and standard were tested twice on a plate.
(§2) Compounds were screened against the following three fungal pathogens—Botrytis cinerea, Alternaria alternata and Zymoseptoria tritici. The agar used in the test varied depending on the pathogen with Medium N used for B. cinerea and A. alternata and 1% potato dextrose agar for Z. tritici. For each pathogen sufficient spores were added to the appropriate agar to give 1,000 spores/mL agar of A. alternata, 5,000 spores/ml agar of B. cinerea and 10,000 spores/mL agar of Z. tritici.
(§3) A ×10 stock solution in 2% DMSO was produced for each dose i.e. 200, 20, 2 and 0.2 ppm, and 10 μl of this added to the appropriate wells on the plate. An equivalent amount of 2% DMSO and Proline stock at 500 and 100 ppm were added for the controls. To each well, 90 μl of the appropriate agar spore suspension was added to give the final well concentrations outlined in the first paragraph.
(§4) Plates were incubated at room temperature (18° C.) and assessed after: • a) 3 to 4 days A. alternata and B. cinerea • b) 7 days for Z. tritici
(§5) The amount of fungal growth in each well was compared to the DMSO controls and scored according to the following key: • A—EC50<2 ppm • B—2≤EC50<20 • C—EC50≥20 • D—No activity detected at the highest dose tested • NT—Not tested

The test system of experiment [2] is Botrytis cinerea. The experiment is described as follows: Fungicidal activity screen in amended agar, 96 well plates, Botrytis cinerea. To be noted: Medium N agar, 5,000 spores/ml, 20, 2, 0.2 and 0.02 ppm, room temperature (18° C.), assessed after 3 to 4 days, read-out: Botrytis (fungal growth vs DMSO controls, EC50 ranking). The method, then: as §1, §2, §3, §4, §5

Experiment [3] relates to Alternaria alternata. The experiment is described as follows: Fungicidal activity screen in amended agar, 96 well plates, Alternaria alternata. The settings on record: Medium N agar, 1,000 spores/mL, 20, 2, 0.2 and 0.02 ppm, room temperature (18° C.), assessed after 3 to 4 days, read-out: Alternaria (fungal growth vs DMSO controls, EC50 ranking). How it is done:
as §1, §2, §3, §4, §5

On to “3-(7-chloro-6-(2-chlorophenoxy) benzo[d]thiazol-2-yl)-8-methoxy-2- thioxo-2,3-dihydro-4H-pyrido[2,3- e][1,3]oxazin-4-one [Example 35]”, for which, in experiment [1], the “Zymoseptoria (fungal growth vs DMSO controls, EC50 ranking)” value is “A (EC50<2 ppm)”.
`COc1ccnc2c(=O)n(-c3nc4ccc(Oc5ccc(F)cc5Cl)cc4s3)c(=O)oc12` [Example 1, 3-(6-(2-Chloro-4-fluorophenoxy)benzo[d]thiazol-2-yl)-8-methoxy-2H-pyrido[2,3-e][1,3]oxazine-2,4(3H)-dione]: the results for the EC50 in experiment [2], in experiment [3] and in experiment [1] were 2 to 20 µg/mL (≈ 4.24 to 42.4 µM), 2 to 20 µg/mL (≈ 4.24 to 42.4 µM) and below 2 µg/mL, respectively.
For `COc1ccnc2c(=O)n(-c3nc4ccc(Oc5cncc(C(F)(F)F)c5)cc4s3)c(=O)oc12` [Example 2, 8-Methoxy-3-(6-((5-(trifluoromethyl)pyridin-3-yl)oxy)benzo[d]thiazol-2-yl)-2H-pyrido[2,3-e][1,3]oxazine-2,4(3H)-dione], the concentration giving a half-maximal response (EC50) (in general, the concentration that produces a half-maximal response) in experiment [2] is 2 to 20 µg/mL (≈ 4.09 to 40.9 µM); in experiment [3], 2 to 20 µg/mL (≈ 4.09 to 40.9 µM); in experiment [1] it was below 2 µg/mL.
Consider `COc1ccnc2c(=O)n(-c3nc4ccc(Oc5ccc(F)cc5)cc4s3)c(=O)oc12` [Example 3, 3-(6-(4-Fluorophenoxy)benzo[d]thiazol-2-yl)-8-methoxy-2H-pyrido[2,3-e][1,3]oxazine-2,4(3H)-dione], for which the half-maximal effective concentration (EC50) is 2 to 20 µg/mL (≈ 4.57 to 45.7 µM) in experiment [2], 2 to 20 µg/mL (≈ 4.57 to 45.7 µM) in experiment [3] and below 2 µg/mL in experiment [1].
Turning to `COc1ccnc2c(=O)n(-c3nc4ccc(Oc5ccccc5)cc4s3)c(=O)oc12` [Example 4, 8-Methoxy-3-(6-phenoxybenzo[d]thiazol-2-yl)-2H-pyrido[2,3-e][1,3]oxazine-2,4(3H)-dione], the values for the 50% effective concentration (EC50) in experiment [2], in experiment [3] and in experiment [1] were 2 to 20 µg/mL (≈ 4.77 to 47.7 µM), 2 to 20 µg/mL (≈ 4.77 to 47.7 µM) and below 2 µg/mL, respectively.
In the case of `COc1ccnc2c(=O)n(-c3nc4ccc(Oc5ccccc5Cl)cc4s3)c(=O)oc12` [Example 5, 3-(6-(2-Chlorophenoxy)benzo[d]thiazol-2-yl)-8-methoxy-2H-pyrido[2,3-e][1,3]oxazine-2,4(3H)-dione], the EC50 in experiment [2] was 2 to 20 µg/mL (≈ 4.41 to 44.1 µM); in experiment [3] it was 2 to 20 µg/mL (≈ 4.41 to 44.1 µM); in experiment [1] it was below 2 µg/mL.
For the compound `COc1ccnc2c(=O)n(-c3nc4cc(-c5ccccc5Cl)c(Oc5ccc(F)cc5Cl)cc4s3)c(=S)oc12` [Example 12, 3-(6-(2-Chloro-4-fluorophenoxy)-5-(2-chlorophenyl)benzo[d]thiazol-2-yl)-8-methoxy-2-thioxo-2,3-dihydro-4H-pyrido[2,3-e][1,3]oxazin-4-one], in experiment [1], the concentration giving a half-maximal response (EC50) was below 2 µg/mL.
Same read-out and setting: the value for `COc1ccnc2c(=O)n(-c3nc4c(-c5ccccc5)cc(Oc5ccc(F)cc5Cl)cc4s3)c(=S)oc12` [Example 13, 3-(6-(2-Chloro-4-fluorophenoxy)-4-phenylbenzo[d]thiazol-2-yl)-8-methoxy-2-thioxo-2,3-dihydro-4H-pyrido[2,3-e][1,3]oxazin-4-one] was below 2 µg/mL; that for `COc1ccnc2c(=O)n(-c3nc4cnc(Oc5ccc(F)cc5Cl)nc4s3)c(=S)oc12` [Example 14, 3-(5-(2-Chloro-4-fluorophenoxy)thiazolo[5,4-d]pyrimidin-2-yl)-8-methoxy-2-thioxo-2,3-dihydro-4H-pyrido[2,3-e][1,3]oxazin-4-one] was below 2 µg/mL; that for `COc1ccnc2c(=O)n(-c3nc4ccc(C(=O)OC(C)C)cc4s3)c(=S)oc12` [Example 15, Isopropyl 2-(8-methoxy-4-oxo-2-thioxo-2H-pyrido[2,3-e][1,3]oxazin-3(4H)-yl)benzo[d]thiazole-6-carboxylate] was below 2 µg/mL.
With `COc1ccnc2c(=O)n(-c3nc4ccc(N(C)c5ccc(F)cc5Cl)cc4s3)c(=S)oc12` [Example 16, 3-(6-((2-Chloro-4-fluorophenyl)(methyl)amino)benzo[d]thiazol-2-yl)-8-methoxy-2-thioxo-2,3-dihydro-4H-pyrido[2,3-e][1,3]oxazin-4-one], the EC50 in experiment [1] was below 2 µg/mL.
`COc1ccnc2c(=O)n(-c3nc4ccc(Oc5ccccc5Cl)cc4s3)c(=S)oc12` [Example 18, 3-(6-(2-Chlorophenoxy)benzo[d]thiazol-2-yl)-8-methoxy-2-thioxo-2,3-dihydro-4H-pyrido[2,3-e][1,3]oxazin-4-one]: the EC50 in experiment [1] is below 2 µg/mL.
Take `COc1ccnc2c(=O)n(-c3nc4ccc(C(=O)c5ccccc5)cc4s3)c(=S)oc12` [Example 19, 3-(6-Benzoylbenzo[d]thiazol-2-yl)-8-methoxy-2-thioxo-2,3-dihydro-4H-pyrido[2,3-e][1,3]oxazin-4-one]: the EC50 in experiment [1] lay in the range of 2 to 20 µg/mL (≈ 4.47 to 44.7 µM).
Still for that read-out and setting: the value for `COc1ccnc2c(=O)n(-c3nc4ccc(Cc5ccccc5)cc4s3)c(=S)oc12` [Example 24, 3-(6-Benzylbenzo[d]thiazol-2-yl)-8-methoxy-2-thioxo-2,3-dihydro-4H-pyrido[2,3-e][1,3]oxazin-4-one] was 2 to 20 µg/mL (≈ 4.61 to 46.1 µM); that for `COc1ccnc2c(=O)n(-c3nc4ccc(Oc5ccc(Cl)cc5)cc4s3)c(=S)oc12` [Example 25, 3-(6-(4-Chlorophenoxy)benzo[d]thiazol-2-yl)-8-methoxy-2-thioxo-2,3-dihydro-4H-pyrido[2,3-e][1,3]oxazin-4-one] was below 2 µg/mL; that for `COc1ccnc2c(=S)n(-c3nc4ccc(Oc5ccccc5Cl)cc4s3)c(=S)oc12` [Example 26, 3-(6-(2-Chlorophenoxy)benzo[d]thiazol-2-yl)-8-methoxy-2H-pyrido[2,3-e][1,3]oxazine-2,4(3H)-dithione] was below 2 µg/mL.
Still for that read-out and setting: next, `COc1ccccc1Oc1ccc2nc(-n3c(=S)oc4c(OC)ccnc4c3=O)sc2c1` [Example 30, 8-methoxy-3-(6-(2-methoxyphenoxy)benzo[d]thiazol-2-yl)-2-thioxo-2,3-dihydro-4H-pyrido[2,3-e][1,3]oxazin-4-one]: below 2 µg/mL; `COc1ccnc2c(=O)n(-c3nc4ccc(N(C)c5ccccc5Cl)cc4s3)c(=S)oc12` [Example 31, 3-(6-((2-chlorophenyl)(methyl)amino)benzo[d]thiazol-2-yl)-8-methoxy-2-thioxo-2,3-dihydro-4H-pyrido[2,3-e][1,3]oxazin-4-one]: below 2 µg/mL.
The same measure, in the same setting: the value for `COc1ccnc2c(=O)n(-c3nc4ccc(N(C)c5ccc(Cl)cc5)cc4s3)c(=S)oc12` [Example 32, 3-(6-((4-chlorophenyl)(methyl)amino)benzo[d]thiazol-2-yl)-8-methoxy-2-thioxo-2,3-dihydro-4H-pyrido[2,3-e][1,3]oxazin-4-one] was below 2 µg/mL.
Consider `COc1ccnc2c(=O)n(-c3nc4ccc(N(C)c5cncc(Cl)c5)cc4s3)c(=S)oc12` [Example 33, 3-(6-((5-chloropyridin-3-yl)(methyl)amino)benzo[d]thiazol-2-yl)-8-methoxy-2-thioxo-2,3-dihydro-4H-pyrido[2,3-e][1,3]oxazin-4-one], for which, in experiment [1], the 50% effective concentration (EC50) lay in the range of 2 to 20 µg/mL (≈ 4.13 to 41.3 µM).
The same measure, in the same setting: next, `COc1ccnc2c(=O)n(-c3nc4ccc(Sc5ccccc5Cl)cc4s3)c(=S)oc12` [Example 34, 3-(6-((2-chlorophenyl)thio)benzo[d]thiazol-2-yl)-8-methoxy-2-thioxo-2,3-dihydro-4H-pyrido[2,3-e][1,3]oxazin-4-one]: below 2 µg/mL.
Still for that read-out and setting: next, `COCCOc1ccccc1Oc1ccc2nc(-n3c(=S)oc4c(OC)ccnc4c3=O)sc2c1` [Example 37, 8-methoxy-3-(6-(2-(2-methoxyethoxy)phenoxy)benzo[d]thiazol-2-yl)-2-thioxo-2,3-dihydro-4H-pyrido[2,3-e][1,3]oxazin-4-one]: 2 to 20 µg/mL (≈ 3.92 to 39.2 µM); `COc1ccnc2c(=O)n(-c3nc4ccc(OCC(C)C)cc4s3)c(=S)oc12` [Example 43, 3-(6-isobutoxybenzo[d]thiazol-2-yl)-8-methoxy-2-thioxo-2,3-dihydro-4H-pyrido[2,3-e][1,3]oxazin-4-one]: below 2 µg/mL.
Still for that read-out and setting: next, `COc1ccnc2c(=O)n(-c3nc4ccc(Oc5ccccc5OCC5CC5)cc4s3)c(=S)oc12` [Example 44, 3-(6-(2-(cyclopropylmethoxy)phenoxy)benzo[d]thiazol-2-yl)-8-methoxy-2-thioxo-2,3-dihydro-4H-pyrido[2,3-e][1,3]oxazin-4-one]: 2 to 20 µg/mL (≈ 3.96 to 39.6 µM); `COc1ccccc1Sc1ccc2nc(-n3c(=S)oc4c(OC)ccnc4c3=O)sc2c1` [Example 45, 8-methoxy-3-(6-((2-methoxyphenyl)thio)benzo[d]thiazol-2-yl)-2-thioxo-2,3-dihydro-4H-pyrido[2,3-e][1,3] oxazin-4-one]: 2 to 20 µg/mL (≈ 4.15 to 41.5 µM); `COc1ccnc2c(=O)n(-c3nc4ccc(Oc5ccc(C(F)(F)F)cc5)cc4s3)c(=S)oc12` [Example 46, 8-methoxy-2-thioxo-3-(6-(4-(trifluoromethyl)phenoxy)benzo[d]thiazol-2-yl)-2,3-dihydro-4H-pyrido[2,3-e][1,3]oxazin-4-one]: below 2 µg/mL.
